Measurements: patent US11840686B2, “Modulation of prekallikrein (PKK) expression” (Ionis Pharmaceuticals, Inc., priority 2013, dated 2023)
Strand notation (5' to 3'): a small letter for the sugar, then the base; units joined by * are phosphorothioate-linked, units joined directly phosphodiester-linked; [ ] holds rarer units or linkages, { } end groups; capitals alone tell only the bases. e = 2'-O-(2-methoxyethyl) (MOE); [5mC] = 5-methylcytosine; d = 2'-deoxy (DNA)

test system: human PKK mRNA; assay: Antisense inhibition of human PKK mRNA in HepaRG cells, 5,000 nM (Example 2); format: cell-based; settings: HepaRG cells, 5,000 nM antisense oligonucleotide, human PKK mRNA; Table 18
Outline: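 qRT-PCR (RTS3454) read-out, RIBOGREEN-normalized; % inhibition vs untreated cells. HepaRG, 20,000 cells/well, electroporation, 5,000 nM ASO, ~24 h.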

First: 548719 (DNA eG*eT*eA*d[5mC]*dT*dA*dG*dT*dT*dT*d[5mC]*d[5mC]*dT*eA*eT*eA*eA; antisense) [compound 548719]
Second: 548713 (DNA e[5mC]*eA*e[5mC]*dT*dG*dT*dA*d[5mC]*dT*dA*dG*dT*dT*eT*e[5mC]*e[5mC]; antisense) [compound 548713]
The “% inhibition” value of the first is lower: 0% for the first, 33% for the second.

With “548720 (DNA eT*eG*eT*dA*d[5mC]*dT*dA*dG*dT*dT*dT*d[5mC]*d[5mC]*eT*eA*eT*eA; antisense) [compound 548720]” the “% inhibition” value was 0%.

same assay, conditions: HepaRG cells, 5,000 nM antisense oligonucleotide; 5-10-5 gapmers; Table 16

Compared with “547719 (eT*eA*e[5mC]*e[5mC]*eA*dA*dG*d[5mC]*dT*dT*dG*dT*dA*dG*dA*eA*eG*eG*eG*eA; antisense) [compound 547719]”, “547716 (e[5mC]*e[5mC]*eA*eT*e[5mC]*dT*dG*dT*d[5mC]*d[5mC]*d[5mC]*d[5mC]*dT*d[5mC]*dA*eA*eT*e[5mC]*e[5mC]*e[5mC]; antisense) [compound 547716]” is lower in “% inhibition” value: 69% for the first, 9% for the second.

same assay, conditions: HepaRG cells, 5,000 nM antisense oligonucleotide; 5-10-5 gapmers; Table 17

First: 547018 (eG*eG*eT*eG*eG*d[5mC]*dG*dG*dG*dA*dT*dT*dG*dG*dT*eG*eG*eT*eG*eG; antisense) [compound 547018]
Second: 547010 (eG*eA*eA*eT*eT*dG*dG*dT*dG*dG*dT*dG*dG*dG*dA*eT*eT*eG*eG*eT; antisense) [compound 547010]
The “% inhibition” value of the first is higher: 58% for the first, 39% for the second.

In the case of “547085 (e[5mC]*e[5mC]*eA*eG*eG*dT*dG*d[5mC]*dA*dG*d[5mC]*dA*d[5mC]*dG*dG*eA*eG*eA*eG*eG; antisense) [compound 547085]”, the “% inhibition” value is reported as 44%.

same assay, conditions: HepaRG cells, electroporation with 5,000 nM antisense oligonucleotide, approximately 24 hours, PKK mRNA by RT-PCR (RTS3454), relative to untreated control cells; Table 5 experiment

First: 547270 (eA*eA*eA*eA*eT*dG*dA*dA*d[5mC]*dG*dG*dT*d[5mC]*dT*dT*e[5mC]*eA*eA*eG*e[5mC]; antisense) [compound 547270]
Second: 547296 (antisense eT*eG*e[5mC]*eA*e[5mC]*d[5mC]*dT*d[5mC]*dA*dT*d[5mC]*dT*dG*dG*d[5mC]*eA*eG*eT*eA*eT) [compound 547296]
The “% inhibition” value of the first is lower: 68% for the first, 72% for the second.

First: 546164 (eT*eG*eA*eT*eT*dG*dA*dA*d[5mC]*dT*dT*dG*d[5mC]*dT*dG*eG*eA*eA*eG*eA; antisense) [compound 546164]
Second: 547301 (antisense eT*e[5mC]*eA*eT*eT*dG*dA*dT*dT*dG*dA*dA*d[5mC]*dT*dT*eG*e[5mC]*eT*eG*eG) [compound 547301]
The “% inhibition” value of the first is lower: 33% for the first, 80% for the second.

First: 546163 (eA*e[5mC]*eT*eT*eG*d[5mC]*dT*dG*dG*dA*dA*dG*dA*dA*dA*eA*e[5mC]*eT*eG*eA; antisense) [compound 546163]
Second: 546146 (eT*eG*eA*eG*eT*d[5mC]*dA*dG*dA*d[5mC]*dA*dT*d[5mC]*d[5mC]*dA*e[5mC]*eA*eG*eG*eA; antisense) [compound 546146]
The “% inhibition” value of the first is lower: 42% for the first, 72% for the second.

same assay, conditions: HepaRG cells, electroporation with 5,000 nM antisense oligonucleotide, approximately 24 hours, PKK mRNA by RT-PCR (RTS3454), relative to untreated control cells; Table 6 experiment

With “547323 (antisense eT*eT*eG*e[5mC]*eT*dT*d[5mC]*dA*dA*dG*dG*dA*dA*dT*dG*eT*e[5mC]*e[5mC]*eA*eG) [compound 547323]” the “% inhibition” value was 56%.

same assay, conditions: HepaRG cells, electroporation, 5,000 nM antisense oligonucleotide, approx. 24 hours, primer probe set RTS3454, relative to untreated control cells; Table 11

Compared with “546374 (antisense e[5mC]*e[5mC]*eA*eG*eG*d[5mC]*dT*d[5mC]*dA*dG*dA*dA*dT*dT*dT*eG*eA*e[5mC]*eT*eT) [compound 546374]”, “547507 (antisense e[5mC]*eA*eG*eG*e[5mC]*dT*d[5mC]*dA*dG*dA*dA*dT*dT*dT*dG*eA*e[5mC]*eT*eT*eG) [compound 547507]” is higher in “% inhibition” value: 50% for the first, 56% for the second.

Compared with “546389 (e[5mC]*eG*eT*eG*e[5mC]*dT*dG*dA*dA*dA*dG*d[5mC]*dG*dG*dG*e[5mC]*eT*eT*e[5mC]*eA; antisense) [compound 546389]”, “546366 (antisense eT*eG*e[5mC]*e[5mC]*eT*dA*dG*dA*d[5mC]*dT*d[5mC]*dT*dG*dG*dA*e[5mC]*eT*eG*e[5mC]*eT) [compound 546366]” is higher in “% inhibition” value: 71% for the first, 79% for the second.

same assay, conditions: HepaRG cells, electroporation, 5,000 nM antisense oligonucleotide, approx. 24 hours, primer probe set RTS3454, relative to untreated control cells; Table 12

Compared with “546498 (e[5mC]*e[5mC]*eA*eT*eG*d[5mC]*dA*dT*dA*d[5mC]*dT*d[5mC]*dG*d[5mC]*d[5mC]*eT*eT*eT*eG*eT; antisense) [compound 546498]”, “546719 (e[5mC]*e[5mC]*e[5mC]*e[5mC]*e[5mC]*dA*dT*dG*dT*d[5mC]*d[5mC]*dA*dT*dG*dG*eA*e[5mC]*eT*eT*eT; antisense) [compound 546719]” is lower in “% inhibition” value: 65% for the first, 55% for the second.

same assay, conditions: Table 7; HepaRG cells, electroporation with 5,000 nM antisense oligonucleotide, approx. 24 hours; PKK mRNA by RT-PCR (RTS3454), relative to untreated control cells

Going from “546240 (eG*eT*eA*eA*eA*dG*dT*dT*d[5mC]*dT*dT*dT*dT*dG*d[5mC]*eA*eG*eG*eT*eT; antisense) [compound 546240]” to “547407 (eT*eT*e[5mC]*eA*eA*dT*dT*d[5mC]*dT*dT*d[5mC]*dT*d[5mC]*d[5mC]*dT*e[5mC]*e[5mC]*eA*eA*eA; antisense) [compound 547407]”, the “% inhibition” value rises from 23% to 59%.

Compared with “547397 (eG*eT*eT*e[5mC]*eA*dG*dG*dT*dA*dA*dA*dG*dT*dT*d[5mC]*eT*eT*eT*eT*eG; antisense) [compound 547397]”, “547392 (eA*eA*eG*eG*e[5mC]*dT*dA*dT*dA*dT*d[5mC]*d[5mC]*dA*dG*dA*eT*eA*eT*eG*eG; antisense) [compound 547392]” is higher in “% inhibition” value: 27% for the first, 81% for the second.

same assay, conditions: Table 8; HepaRG cells, electroporation with 5,000 nM antisense oligonucleotide, approx. 24 hours; PKK mRNA by RT-PCR (RTS3454), relative to untreated control cells

Compared with “547410 (e[5mC]*eA*eA*eG*eT*d[5mC]*dT*d[5mC]*dT*dT*dG*dG*d[5mC]*dA*dA*eA*e[5mC]*eA*eT*eT; antisense) [compound 547410]”, “546296 (antisense eG*eA*eA*eG*e[5mC]*d[5mC]*d[5mC]*dA*dT*d[5mC]*dA*dA*dA*dG*d[5mC]*eA*eG*eT*eG*eG) [compound 546296]” is lower in “% inhibition” value: 88% for the first, 27% for the second.

First: 546267 (e[5mC]*e[5mC]*eT*eT*eA*d[5mC]*dA*dG*dT*d[5mC]*dT*dT*d[5mC]*dT*dG*eG*eG*eA*eG*eT; antisense) [compound 546267]
Second: 547435 (antisense e[5mC]*eA*eA*eG*eA*dA*dG*dA*dG*dT*dT*dT*dG*dT*dT*e[5mC]*e[5mC]*eT*e[5mC]*e[5mC]) [compound 547435]
The “% inhibition” value of the first is lower: 72% for the first, 85% for the second.

With “546300 (antisense eT*eA*eA*eT*eG*dT*d[5mC]*dT*dG*dA*d[5mC]*dA*dG*dA*dT*eT*eT*eA*eA*eA) [compound 546300]” the “% inhibition” value was 58%.

same assay, conditions: Table 13; human PKK mRNA in HepaRG cells; 5-10-5 gapmers

First: 547566 (eA*eA*eG*eA*eG*dT*dT*dG*dG*dG*dA*dT*dG*d[5mC]*dG*eA*e[5mC]*eT*e[5mC]*eT; antisense) [compound 547566]
Second: 547581 (eA*eT*eA*eT*e[5mC]*dA*d[5mC]*dT*dG*dT*d[5mC]*d[5mC]*dT*dA*dT*eA*eA*e[5mC]*eT*e[5mC]; antisense) [compound 547581]
The “% inhibition” value of the first is higher: 76% for the first, 60% for the second.

same assay, conditions: human PKK mRNA in HepaRG cells; 5-10-5 gapmers; Table 14

Compared with “547590 (eA*eT*eA*eA*e[5mC]*dT*dA*dT*dA*dA*d[5mC]*dA*dG*dT*dA*eT*e[5mC]*eA*e[5mC]*eT; antisense) [compound 547590]”, “546867 (eA*e[5mC]*e[5mC]*eT*eA*dT*dA*dA*d[5mC]*dT*d[5mC]*dT*dA*dA*d[5mC]*eA*eG*eT*eA*eT; antisense) [compound 546867]” is higher in “% inhibition” value: 0% for the first, 40% for the second.

Going from “547608 (antisense eT*eA*eT*eA*eA*d[5mC]*dA*dA*dT*dA*dT*d[5mC]*dA*d[5mC]*dT*eG*eT*eA*e[5mC]*e[5mC]) [compound 547608]” to “547591 (e[5mC]*e[5mC]*eT*eA*eT*dA*dA*d[5mC]*dT*dA*dT*dA*dA*d[5mC]*dA*eG*eT*eA*eT*e[5mC]; antisense) [compound 547591]”, the “% inhibition” value falls from 35% to 23%.

First: 546880 (eG*eT*eT*eT*e[5mC]*d[5mC]*dT*dA*dT*dA*dA*d[5mC]*dA*dG*dT*eA*eT*e[5mC]*eA*e[5mC]; antisense) [compound 546880]
Second: 547595 (antisense eA*e[5mC]*eT*eA*eG*dT*dT*dT*d[5mC]*d[5mC]*dT*dA*dT*dA*dA*e[5mC]*eT*eA*eT*eA) [compound 547595]
The “% inhibition” value of the first is higher: 41% for the first, 21% for the second.

“547621 (antisense eT*eA*e[5mC]*eT*eA*dG*dT*dT*dT*d[5mC]*d[5mC]*dT*dA*dT*dA*eA*e[5mC]*eA*eG*eT) [compound 547621]” was tested, and the “% inhibition” value was 12%.

same assay, conditions: human PKK mRNA, HepaRG cells, 5,000 nM antisense oligonucleotide, Table 18

For “548772 (antisense eT*eA*eT*eA*dA*d[5mC]*dA*dG*dT*dA*dT*d[5mC]*dA*e[5mC]*eT*eG*eT) [compound 548772]”, the “% inhibition” value was 0%.

same assay, conditions: human PKK mRNA, HepaRG cells; 5-10-5 motif oligonucleotides targeting SEQ ID NO: 1 and 10

First: 546895 (eT*eA*eT*e[5mC]*eA*d[5mC]*dT*dG*dT*d[5mC]*d[5mC]*dT*dA*dT*dG*eT*e[5mC]*eA*e[5mC]*eT; antisense) [compound 546895]
Second: 546901 (eA*e[5mC]*eT*eG*eT*d[5mC]*d[5mC]*dT*dA*dT*dA*dA*d[5mC]*dT*dA*eT*eA*eA*e[5mC]*eA; antisense) [compound 546901]
The “% inhibition” value of the first is higher: 77% for the first, 56% for the second.

First: 547639 (eG*eT*e[5mC]*e[5mC]*eT*dA*dT*dA*dA*d[5mC]*dT*dA*dT*dA*dA*e[5mC]*eA*eG*eT*eA; antisense) [compound 547639]
Second: 547640 (eT*eG*eT*e[5mC]*e[5mC]*dT*dA*dT*dA*dA*d[5mC]*dT*dA*dT*dA*eA*e[5mC]*eA*eG*eT; antisense) [compound 547640]
The “% inhibition” value of the first is higher: 72% for the first, 13% for the second.
